Reference: US20140088044A1, “PRODUCT COMPRISING A NICOTINE-CONTAINING MATERIAL AND AN ANTI-CANCER AGENT” (priority 2012, published 2014)

Key:
[1] = test system: A549 xenografts; assay: A549 xenografts in nude mice, PS V and curcumin alone and combined; type: in vivo, female nude mice; conditions: for inhibition of tumor growth (in words): duration of the study, to day 36; for average tumor volume: end of the study (day 36), PS V 200 mg/kg/d, curcumin 500 mg/kg/d, control 521±76 mm^3; for reduction in tumor weight: PS V p=0.06, PS V plus curcumin p<0.01
Method: Polymeric nanoparticles of poly(c-caprolactone) (11000)-polyethylene glycol (5000) with entrapped curcumin were prepared according to the nanopercipitation-solvent displacement method. […] Then, the mice were inoculated subcutaneously on both flanks with […] cells (2×10^6 each). The treatment was resumed one day after tumor implantation and continued daily until the end of the study.

[2] = test system: pre-clinical models of lung cancer; conditions: cited from earlier work
[3] = Pharmacokinetic parameters in lung and plasma after inhalational administration (HPLC)
Method: After 8 min of inhalation treatment, BALB/c nude mice were euthanized at various time points and drug levels were analyzed by HPLC in plasma and lung tissues.

[4] = Drug levels in lungs and plasma after inhalation vs. oral gavage; type: in vivo, mice
[5] = test system: human cancer cells; assay: Cytotoxicity to human cancer cells compared with metabolites; type: cell-based
[6] = mouse, in vivo, inhaled or intranasal
[7] = plasma, after 8 min of inhalation treatment

In the case of COc1cc(/C=C/C(=O)CC(=O)/C=C/c2ccc(O)c(OC)c2)ccc1O [curcumin], the “inhibition of tumor growth (in words)” value [1] is reported as “ineffective”, the average tumor volume [1] is reported as 599±98 mm^3 and the “reduction in tumor weight” value ([1]; vs control) is reported as “not”. The “efficacy as a single agent” value [2] was < 30%.

With CSc1ccc(/C=C2/C(C)=C(CC(=O)O)c3cc(F)ccc32)cc1 [Sulindac sulfide XI, sulindac sulfide] the AUC [3, 6] was 18.9.

With CC1=C(CC(=O)O)c2cc(F)ccc2/C1=C\c1ccc(S(C)(=O)=O)cc1 [Sulindac sulfone XII, sulindac sulfone] the AUC [3, 6] was 57.5 and the Cmax [3, 6] was 4.6 nmol/g.

CC1=C(CC(=O)O)c2cc(F)ccc2/C1=C\c1ccc([S+](C)[O-])cc1 (centres unmarked) [Sulindac, sulindac] gave a Tmax ([3]; lung, after 8 min of inhalation treatment) of 0 h, an AUC [3, 7] of 49.5 and a Tmax [3, 7] of 0 h.

For CCOP(=O)(OCC)OCCCCOC(=O)CC1=C(C)/C(=C/c2ccc([S+](C)[O-])cc2)c2ccc(F)cc21 (centres unmarked) [PS V, phospho-sulindac], the “PS levels in plasma” value ([4]; after inhalation and oral administration) was “undetectable”, the “total drug levels (PS V plus its metabolites) in lungs, inhalation compared to oral” value ([4]; inhalation 6.5 mg/kg vs oral 150 mg/kg) was “significantly higher” and the “inhibition of tumor growth (in words)” value [1] was “small inhibition of tumor growth”. For the same compound, the average tumor volume [1] was 419±36 mm^3, the “reduction in tumor volume” value ([1]; end of the study, vs control) was 19.6% and the “reduction in tumor weight” value ([1]; vs control) was 27%. For the same compound, the “cytotoxicity relative to sulindac, sulindac sulfide XI and sulindac sulfone XII” value [5] was “more cytotoxic”.
